From patent US8734849B2, “Multiparticle pharmaceutical dosage form containing a mucoadhesively formulated peptide or protein active substances method for producing said pharmaceutical dosage form” (Evonik Roehm GmbH, priority 2003, dated 2014)
Where a SMILES comes first, the peptide text is derived from it. [ ]: non-standard residue; d: D form. dPhe(4-Cl) = N[C@H](Cc1ccc(Cl)cc1)C(=O)O; d2Nal = N[C@H](Cc1ccc2ccccc2c1)C(=O)O; dCit = NC(=O)NCCC[C@@H](N)C(=O)O; d3Pal = N[C@H](Cc1cccnc1)C(=O)O

Experiment: Solubility in water according to DAB 10
Type: physicochemical
Source text: The solubility in water for the active substance and the substance or substances forming the lipophilic matrix can be defined as specified in DAB 10 (Deutsches Arzneibuch, 10th edition with 3rd supplement 1994, Deutscher Apothekerverlag, Stuttgart und Govi Verlag, Frankfurt/Main, 2nd supplement (1993), IV Allgemeine Vorschriften, pp. 5-6, “Löslichkeit und Lösungsmittel”; see also Ph. Eur. Jul. 4, 2004). The solubility is defined by the number of parts by volume of solvent for 1 part by weight of substance or drug. The definition of “sparingly soluble” includes substances which require from 30 to 100 parts by volume of solvent for 1 part by weight of substance or drug, and the definition of “slightly soluble” includes substances which require from 100 to 1000 parts by volume of solvent for 1 part by weight of substance or drug.

Row | Compound | solubility in water according to DAB 10 | solubility (equivalent of the DAB 10 parts) [µg/mL] | solubility in water, equivalent [g/L]
1 | CC(=O)N[C@H](Cc1ccc2ccccc2c1)C(=O)N[C@H](Cc1ccc(Cl)cc1)C(=O)N[C@H](Cc1cccnc1)C(=O)N[C@@H](CO)C(=O)N[C@@H](Cc1ccc(O)cc1)C(=O)N[C@H](CCCNC(N)=O)C(=O)N[C@@H](CC(C)C)C(=O)N[C@@H](CCCNC(=N)N)C(=O)N1CCC[C@H]1C(=O)N[C@H](C)C(N)=O [Cetrorelix acetate] (Ac-[d2Nal][dPhe(4-Cl)][d3Pal]SY[dCit]LRP[dA]-NH2) | at least 1000 parts of water for 1 part of active substance | 1000 | 
2 | Erythropoetin alfa: slightly soluble protein active substance | at least 500 parts of water for 1 part of active substance |  | 2
